Measurements from ChEMBL document CHEMBL1129670, “Synthesis and structure-activity relationships of N-propyl-N-(4-pyridinyl)-1H-indol-1-amine (besipirdine) and related analogs as potential therapeutic agents for Alzheimer's disease” (J Med Chem, 1996).

Assays:
[1] = biological target: T1, Acetylcholinesterase (Rattus norvegicus, UniProt P37136); experiment: Inhibitory activity against Acetylcholinesterase in rat striatum; type: tissue-based
T1 sequence (P37136 whole entry): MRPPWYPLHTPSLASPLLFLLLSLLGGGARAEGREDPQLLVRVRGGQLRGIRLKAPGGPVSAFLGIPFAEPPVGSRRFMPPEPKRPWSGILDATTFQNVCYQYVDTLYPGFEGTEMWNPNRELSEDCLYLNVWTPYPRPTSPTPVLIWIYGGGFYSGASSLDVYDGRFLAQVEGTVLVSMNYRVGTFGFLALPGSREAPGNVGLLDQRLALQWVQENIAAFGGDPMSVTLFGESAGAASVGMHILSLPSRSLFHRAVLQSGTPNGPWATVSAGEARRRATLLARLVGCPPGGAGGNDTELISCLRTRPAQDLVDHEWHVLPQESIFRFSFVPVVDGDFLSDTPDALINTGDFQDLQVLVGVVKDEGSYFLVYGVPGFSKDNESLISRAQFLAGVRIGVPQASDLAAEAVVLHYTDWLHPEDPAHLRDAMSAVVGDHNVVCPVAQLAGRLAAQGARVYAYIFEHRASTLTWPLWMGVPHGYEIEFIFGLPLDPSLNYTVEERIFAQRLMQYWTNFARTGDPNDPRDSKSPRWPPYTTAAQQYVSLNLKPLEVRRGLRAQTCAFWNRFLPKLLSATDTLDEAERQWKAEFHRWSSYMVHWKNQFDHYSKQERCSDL

[2] = biological target: Serotonin 2 (5-HT2) receptor (Rattus norvegicus, UniProt P30994+P08909+P14842); experiment: Inhibitory activity against [3H]spiroperidol binding to 5-HT2 receptor in rat cortex
[3] = biological target: 5-hydroxytryptamine receptor 1B (Rattus norvegicus, UniProt P28564); experiment: Inhibitory activity against [3H]5-HT binding to 5-HT1B receptor in rat striatum; type: tissue-based
Chain of 5-hydroxytryptamine receptor 1B (P28564 whole entry): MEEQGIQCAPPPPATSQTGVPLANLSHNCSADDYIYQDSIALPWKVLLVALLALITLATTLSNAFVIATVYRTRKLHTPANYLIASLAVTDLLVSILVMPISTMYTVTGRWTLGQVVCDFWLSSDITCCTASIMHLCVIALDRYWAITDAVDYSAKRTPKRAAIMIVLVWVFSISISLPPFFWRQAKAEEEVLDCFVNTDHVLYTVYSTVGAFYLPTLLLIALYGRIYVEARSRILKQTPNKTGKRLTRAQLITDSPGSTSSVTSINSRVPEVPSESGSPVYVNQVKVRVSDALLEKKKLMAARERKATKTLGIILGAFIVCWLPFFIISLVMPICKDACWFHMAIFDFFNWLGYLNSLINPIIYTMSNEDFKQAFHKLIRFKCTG

[4] = species on record: Rattus norvegicus; experiment: Inhibitory activity against [3H]norepinephrine (NE) uptake in rat whole brain; type: functional
[5] = biological target: D(1A) dopamine receptor (Rattus norvegicus, UniProt P18901); experiment: Inhibitory activity against [3H]SCH-23390 binding to Dopamine receptor D1 in rat striatum; type: tissue-based
Chain of D(1A) dopamine receptor (P18901 whole entry): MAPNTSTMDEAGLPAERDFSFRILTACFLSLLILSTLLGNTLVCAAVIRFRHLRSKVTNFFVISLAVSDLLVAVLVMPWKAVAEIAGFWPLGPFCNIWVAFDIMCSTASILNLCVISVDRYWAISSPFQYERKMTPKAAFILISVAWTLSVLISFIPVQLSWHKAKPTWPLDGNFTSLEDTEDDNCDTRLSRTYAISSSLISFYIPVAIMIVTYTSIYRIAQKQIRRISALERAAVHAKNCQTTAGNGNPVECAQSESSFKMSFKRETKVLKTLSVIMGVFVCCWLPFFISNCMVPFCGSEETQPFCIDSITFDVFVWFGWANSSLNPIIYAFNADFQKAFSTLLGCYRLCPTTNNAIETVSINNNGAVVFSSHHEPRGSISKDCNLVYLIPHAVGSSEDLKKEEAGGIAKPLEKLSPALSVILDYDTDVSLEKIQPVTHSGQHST

Structure (SMILES): CCCN(c1ccncc1)n1ccc2ccccc21 [BESIPIRDINE]
- IC50 [1]: > 100 µM
- IC50 [2]: > 20 µM
- IC50 [3]: > 20 µM
- IC50 [4]: 0.43 µM
- IC50 [5]: > 20 µM
